Seven compounds from US20220144809A1, “COMPOUNDS AND METHODS FOR THE TARGETED DEGRADATION OF ANDROGEN RECEPTOR AND ASSOCIATED METHODS OF USE” (Arvinas Operations, Inc., priority 2020, published 2022) can be followed below.

The assay relates to Androgen Receptor (AR). The assay can be described thus: Androgen Receptor ELISA assay (AR degradation in LNCaP and/or VCaP cells). Particulars: degradation of AR, 5 hours incubation, R1881 in media. It counts as cell-based. The protocol: Assay for Testing AR Degradation Driven by Compounds of the Present Disclosure.
Androgen Receptor ELISA Assay. Compounds were evaluated in the following assay in LNCaP and/or VCaP cells utilizing similar protocols. The protocols used with VCaP cells are described below. The androgen receptor ELISA assay was performed using PathScan AR Sandwich ELISA (Cell Signaling Catalog#12850) according to the following assay steps.
VCaP cells were seeded at 40,000 cells/well at a volume of 100 μL/well in VCaP assay medium [Phenol red free RPMI (Gibco Cat#11835-030); 5% Charcoal Stripped (Dextran treated) FBS (Omega Scientific, Cat#FB-04); 1% penstrep (Life Technologies, Gibco Cat#: 10378-016)] in Corning 3904 plates. The cells were grown for a minimum of 3 days.
First, cells were dosed with compounds diluted in […]—in a polypropylene plate avoiding the use of outer columns according to the following protocol: (1)(i) 1000× stock plate in DMSO was made; (ii) 20 mM stock diluted 1/6.7 with DMSO (5 μL+28.3 μL DMSO)=3 mM into row H; (iii) serial dilutions in ½ log doses (10 μL of bifunctional compound+20 μL DMSO) was performed from row H towards row B with row A being reserved for DMSO; (iv) 7 doses total (final concentration in this 1000× plate will be 3 mM, 1 mM, 333 μM, 111 μM, etc). (2)(i) A 10× stock plate in media was made; (ii) 2.5 μL of the 1000× stock was trasnferred to a new 10× stock plate (use 12 channel pipet, start at A (DMSO control) work thru H. When 247.5 μL of media was added to this plate, it served as a 10× stock; (iii) made media+1 nM R1881 for making 10× stock plate; (iv) added 247.5 μL of media with 1 nM R1881 to each well of the 10× stock plate, mix.
Then 22 μL of 10× stock was added to cells and incubated for 5 hours. 1× Cell Signaling Cell lysis buffer was made (Catalogue #9803; comes with the kit) to have […], and was kept on ice. Media was aspirated, and 100 μL 1× cell lysis buffer/well was added. The cells were placed on a shaker located in a cold room for 10 minutes and shaken at speed 7. The lysate mixture was mix and 20 μL transferred to 100 μl of Diluent in ELISA plate (0.15 μg/ml-0.075 μg/ml). The lysate-diluent mixture was store at 4° C. overnight on a shaker located in a cold room at speed 5 (gentle swirl).
The lysate-diluent mixture was shaken for 30 minutes at 37° C. The mouse AR antibody, anti-mouse antibody, TMB, and STOP solution were allowed to come to room temperature. The 1×ELISA buffer included in kit was made and loaded in reservoir. Media from the plate was discarded, the ELISA plate was tapped hard on paper towel, and washed 4×200 μl ELISA wash buffer using a plate washer for the first three washes and an eight channel aspirator for the fourth wash to more thoroughly aspirate the solution.
Next, 100 μL/well of mouse AR detection Ab was added; the plate was covered and shaken at 37° C. for 1 hour; media was discarded from the plates, the plates tapped on a paper towel and washed four times with 200 μL ELISA wash buffer with a plate washer for the first three washes and an eight channel aspirator for the fourth wash; 100 μL/well of anti-mouse—HRP conjugated Ab (comes with the kit) was added; the plates wascover and shaken at 37° C. for 30 minutes; the TMB reagent was allowed to come to room temperature; the media from the plate was discarded, the plates tapped on paper towel, and washed four times with 200 μL ELISA wash buffer with a plate washer for the first three washes and an eight channel aspirator for the fourth wash; plates were tapped on paper towl; 100 μL TMB was added to each well and the plate shaken for 2 minutes—while watching color. STOP solution (100 μL) was added when light blue color developed. The plates were shake and read at 450 nm.
Data was analyzed and plotted using GraphPad Prism software. Exemplary compounds of Table 1 were assayed and the data shown below in Table 2. […]
A general note: ELISA stands for enzyme-linked immunosorbent assay.

The DC50 is the concentration giving 50% degradation. A low value points to degradation at low concentration. For `CC(C)N(CC1CCN(c2ccc(Cn3c(=O)n(-c4ccc(C#N)c(C(F)(F)F)c4)c4ccccc43)cc2)CC1)[C@H]1C[C@H](Oc2ccc3c(c2)C(=O)N(C2CCC(=O)NC2=O)C3=O)C1` (some centres unmarked) [Compound 25, 4-(3-(4-(4-((((1r,3r)-3-((2-(2,6-dioxopiperidin-3-yl)-1,3-dioxoisoindolin-5-yl)oxy)cyclobutyl)(isopropyl)amino)methyl)piperidin-1-yl)benzyl)-2-oxo-2,3-dihydro-1H-benzo[d]imidazol-1-yl)-2-(trifluoromethyl)benzonitrile], the DC50 was at least 100 nM and the “Dmax Code” value is “C (C<50)”.

On to `N#Cc1ncc(N2C(=O)C3(CCC3)N(c3ccc(C4CCN(CC5CCN(c6ccc7c(c6)C(=O)N(C6CCC(=O)NC6=O)C7)CC5)CC4)cc3)C2=S)cc1Cl` (centres unmarked) [Compound 11], for which the DC50 is 1 to 10 nM and the “Dmax Code” value is on record as “C (C<50)”.

In the case of `N#Cc1ncc(N2C(=O)C3(CCC3)N(c3ccc(OC4CCN(CC5CCN(c6ccc7c(c6)C(=O)N(C6CCC(=O)NC6=O)C7=O)CC5)CC4)c(F)c3)C2=S)cc1Cl` (centres unmarked) [Compound 10, 3-chloro-5-(5-(4-((1-((1-(2-(2,6-dioxopiperidin-3-yl)-1,3-dioxoisoindolin-5-yl)piperidin-4-yl)methyl)piperidin-4-yl)oxy)-3-fluorophenyl)-8-oxo-6-thioxo-5,7-diazaspiro[3.4]octan-7-yl)picolinonitrile], the DC50 fell in the range of 1 to 10 nM and the “Dmax Code” value was “A (A≥70)”.

As to `CCN(CC1CCN(c2ccc(CN3C(=S)N(c4ccc(C#N)c(C(F)(F)F)c4)C(=O)C3(C)C)cn2)CC1)[C@H]1C[C@H](Oc2ccc3c(c2)C(=O)N(C2CCC(=O)NC2=O)C3=O)C1` (some centres unmarked) [Compound 4, 4-(3-((6-(4-((((1r,3r)-3-((2-(2,6-dioxopiperidin-3-yl)-1,3-dioxoisoindolin-5-yl)oxy)cyclobutyl)(ethyl)amino)methyl)piperidin-1-yl)pyridin-3-yl)methyl)-4,4-dimethyl-5-oxo-2-thioxoimidazolidin-1-yl)-2-(trifluoromethyl)benzonitrile], the DC50 was below 1 nM and the “Dmax Code” value was “C (C<50)”.

As for `N#Cc1ncc(N2C(=O)C3(CCC3)N(c3ccc(N4CCC(CN5CCN(c6ccc7c(c6)C(=O)N(C6CCC(=O)NC6=O)C7)CC5)CC4)cc3)C2=S)cc1Cl` (centres unmarked) [Compound 2, 3-chloro-5-(5-(4-(4-((4-(2-(2,6-dioxopiperidin-3-yl)-3-oxoisoindolin-5-yl)piperazin-1-yl)methyl)piperidin-1-yl)phenyl)-8-oxo-6-thioxo-5,7-diazaspiro[3.4]octan-7-yl)picolinonitrile], the DC50 was below 1 nM and the “Dmax Code” value is “A (A≥70)”.

On to `N#Cc1ncc(N2C(=O)C3(CCC3)N(c3ccc(OC4CCN(CC5CCN(c6ccc7c(c6)C(=O)N(C6CCC(=O)NC6=O)C7=O)CC5)CC4)nc3)C2=S)cc1C(F)(F)F` (centres unmarked) [Compound 12, 5-(5-(6-((1-((1-(2-(2,6-dioxopiperidin-3-yl)-1,3-dioxoisoindolin-5-yl)piperidin-4-yl)methyl)piperidin-4-yl)oxy)pyridin-3-yl)-8-oxo-6-thioxo-5,7-diazaspiro[3.4]octan-7-yl)-3-(trifluoromethyl)picolinonitrile], for which the DC50 was in the range of 1 to 10 nM and the “Dmax Code” value is recorded as “B (50≤B<70)”.

In the case of `N#Cc1ncc(N2C(=O)C3(CCC3)N(c3ccc(CCCCCN4CCN(c5ccc6c(c5)C(=O)N(C5CCC(=O)NC5=O)C6=O)CC4)cc3)C2=S)cc1Cl` (centres unmarked) [Compound 1, 3-chloro-5-(5-(4-(5-(4-(2-(2,6-dioxopiperidin-3-yl)-1,3-dioxoisoindolin-5-yl)piperazin-1-yl)pentyl)phenyl)-8-oxo-6-thioxo-5,7-diazaspiro[3.4]octan-7-yl)picolinonitrile], the DC50 was below 1 nM and the “Dmax Code” value was “A (A≥70)”.
